Experimental data as given in patent US7132419B2, “Pharmaceutical compounds” (Xenova Limited, priority 2000, dated 2006).
pIC50: −log10 of the molar value. Each block holds one molecule with its values, some of them ahead of it.

Key:
[1] = tested on: Jurkat human leukaemia cell line (JLC); experiment: Cytotoxicity, Jurkat leukaemia cell line JLC; type: cell-based; details: concentration required to give 50% cell kill
Procedure: (§1) The cytotoxicity of the compounds described herein was also measured using the Jurkat human leukaemia cell line (JLC) and also the amsacrine-resistant Jurkat human leukaemia cell line (JLA) and the doxorubicin-resistant Jurkat human leukaemia cell line (JLD). The cytotoxicity, as measured by the IC50 (concentration required to give 50% cell kill) in the JLA or JLD cell line divided by the cytotoxicity in the JLC cell line gives an indication of the degree to which a compound may be affected by atypical drug resistance and is termed the resistance factor (Rf) of the compound. The method used has been described previously (Finlay et al, Eur J. Cancer 32A, 708–714, 1996). Compounds were active in the range 1 nM to 5 μM.

[2] = tested on: amsacrine-resistant Jurkat human leukaemia cell line (JLA); experiment: Cytotoxicity, amsacrine-resistant Jurkat cell line JLA; type: cell-based; details: for pIC50: concentration required to give 50% cell kill; for Rf (JLA/JLC): IC50 in JLA divided by IC50 in JLC, atypical drug resistance
Procedure: as §1

[3] = tested on: doxorubicin-resistant Jurkat human leukaemia cell line (JLD); experiment: Cytotoxicity, doxorubicin-resistant Jurkat cell line JLD; type: cell-based; details: for pIC50: concentration required to give 50% cell kill; for Rf (JLD/JLC): IC50 in JLD divided by IC50 in JLC, atypical drug resistance
Procedure: as §1

topoisomerase I = target: T1, topoisomerase I (Homo sapiens, UniProt P11387); experiment: Stabilisation of cleavable complexes, topoisomerase I; type: biochemical; details: range where an increase in cleavable complexes was observed relative to controls in the absence of drug
T1 sequence (P11387 1-765): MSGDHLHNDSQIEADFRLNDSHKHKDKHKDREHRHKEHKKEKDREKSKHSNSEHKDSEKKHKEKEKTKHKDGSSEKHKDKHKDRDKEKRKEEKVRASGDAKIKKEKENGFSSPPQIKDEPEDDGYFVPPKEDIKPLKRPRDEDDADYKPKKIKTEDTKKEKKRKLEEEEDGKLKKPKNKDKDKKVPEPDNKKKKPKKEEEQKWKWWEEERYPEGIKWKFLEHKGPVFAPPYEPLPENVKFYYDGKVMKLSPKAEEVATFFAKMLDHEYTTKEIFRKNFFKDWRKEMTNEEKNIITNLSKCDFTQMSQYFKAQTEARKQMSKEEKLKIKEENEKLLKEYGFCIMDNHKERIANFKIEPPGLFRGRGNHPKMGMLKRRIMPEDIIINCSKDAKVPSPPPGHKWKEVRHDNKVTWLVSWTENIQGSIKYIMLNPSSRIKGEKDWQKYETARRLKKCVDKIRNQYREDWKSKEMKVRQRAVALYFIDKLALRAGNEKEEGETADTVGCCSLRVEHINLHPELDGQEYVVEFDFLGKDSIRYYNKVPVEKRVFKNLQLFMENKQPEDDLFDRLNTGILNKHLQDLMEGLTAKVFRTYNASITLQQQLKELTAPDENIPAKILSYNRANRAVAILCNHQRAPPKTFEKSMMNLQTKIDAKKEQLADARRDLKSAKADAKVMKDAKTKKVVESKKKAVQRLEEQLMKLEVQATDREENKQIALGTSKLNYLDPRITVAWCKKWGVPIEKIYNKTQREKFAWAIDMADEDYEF
Text: (§2) Compounds were also studied for their ability to stabilize cleavable complexes in the presence of either topoisomerase I or II essentially as described previously (Finlay et al, Eur J. Cancer 32A, 708–714, 1996). Presence of cleavable complexes was indicated by an increase in the number and intensity of bands observed after electrophoresis and autoradiography. The results are expressed as the effective concentration range where an increase in cleavable complexes was observed relative to controls in the absence of drug.

[4] = tested on: COR-L23 parental (COR-L23/P) human non-small cell lung carcinoma cell line; experiment: Cytotoxicity, COR-L23 parental cell line (SRB assay); type: cell-based; details: concentration required to give 50% cell kill, 5–6 days incubation
Procedure: (§3) The cytotoxicity of the compounds described herein was also measured using the COR-L23 parental (COR-L23/P) human non-small cell lung carcinoma cell line and also the drug resistant human non-small cell lung carcinoma cell line COR-L23/R which overexpresses multidrug resistance associated protein (MRP). The cytotoxicity, as measured by the IC50 (concentration required to give 50% cell kill) in the L23/R cell line divided by the cytotoxicity in the L23/P cell line gives an indication of the degree to which a compound may be affected by MRP-dependant MDR and is termed the resistance factor (Rf) of the compound.
(§4) L23/P and L23/R cells were pipetted into 96-well tissue culture plates and then allowed to incubate at 37° C. for 4 h. […] The plates were incubated for 5–6 days before proliferation was assessed using the sulphurhodamine B (SRB) assay as described by Skehan et al, J Natl Cancer Inst 1990, 82, pp 1107–1112.

[5] = tested on: drug resistant human non-small cell lung carcinoma cell line COR-L23/R which overexpresses multidrug resistance associated protein (MRP); experiment: Cytotoxicity, drug resistant COR-L23/R cell line (SRB assay); type: cell-based; details: for Rf (resistance factor): IC50 in L23/R divided by IC50 in L23/P, MRP-dependant MDR; for pIC50: concentration required to give 50% cell kill, 5–6 days incubation
Procedure: as §3, §4

topoisomerase II = experiment: Stabilisation of cleavable complexes, topoisomerase II; type: biochemical; details: range where an increase in cleavable complexes was observed relative to controls in the absence of drug
Text: as §2

[6] = tested on: drug resistant human small cell lung carcinoma cell line H69/LX4 which overexpresses P-glycoprotein (Pgp); experiment: Cytotoxicity, drug resistant H69/LX4 cell line (AlamarBlue); type: cell-based; details: for Rf (resistance factor): IC50 in H69/LX4 divided by IC50 in H69/P, Pgp-dependent MDR; for pIC50: concentration required to give 50% cell kill, 5–6 days incubation
Procedure: (§5) The cytotoxicity of compounds of formula (I) was measured using the H69 parental (H69/P) human small cell lung carcinoma cell line and the drug resistant human small cell lung carcinoma cell line H69/LX4 which overexpresses P-glycoprotein (Pgp). The cytotoxicity, as measured by the IC50 (concentration required to give 50% cell kill) in the H69/LX4 cell line divided by the cytotoxicity in the H69/P cell line gives an indication of the degree to which a compound is affected by Pgp-dependent MDR and is termed the resistance factor (Rf) of the compound.
(§6) H69/P and H69/LX4 cells were pipetted into 96-well tissue culture plates and then allowed to incubate at 37° C. for 4 h. […] The plates were incubated for 5–6 days before adding AlamarBlue to each well and returning the plates to the incubator for 5–8 h to allow colour development. The cell numbers in the plates at the end of this period were directly proportional to the absorbance measured at a wavelength of 570 nm (reference wavelength 600 nm).

[7] = tested on: H69 parental (H69/P) human small cell lung carcinoma cell line; experiment: Cytotoxicity, H69 parental cell line (AlamarBlue); type: cell-based; details: concentration required to give 50% cell kill, 5–6 days incubation
Procedure: as §5, §6

[8] = Cytotoxicity, drug resistant COR-L23/R cell line (SRB assay); type: cell-based, human; details: Homo sapiens, COR-L23/R; concentration required to give 50% cell kill; 5–6 days incubation
Procedure: as §3, §4

Compound: CN(C)CCNC(=O)c1cccc2nc3ccc4cc(O)ccc4c3nc12 [Compound 2, 3-Hydroxy-benzo[a]phenazine-11-carboxylic acid (2-dimethylamino-ethyl)-amide]
pIC50 ([1]; Homo sapiens, Jurkat): 7.43
pIC50 ([2]; Homo sapiens, Jurkat): 7.02
Rf (JLA/JLC) [2]: 2.6
pIC50 ([3]; Homo sapiens, Jurkat): 6.97
Rf (JLD/JLC) [3]: 2.9

Compound: Br.CN(C)CCNC(=O)c1cccc2nc3ccc4c(O)cccc4c3nc12 [Compound 4, 4-Hydroxy-benzo[a]phenazine-11-carboxylic acid (2-dimethylamino-ethyl)-amide: hydrobromide salt]
Effective concentration range, Topoisomerase I (topoisomerase I): 0.1 to 3.0 µM
pIC50 [4]: 7.83
Rf (resistance factor) [5]: 1.1
pIC50 [5]: 7.77
Effective concentration range, Topoisomerase II (topoisomerase II): 0.1 to 3.0 µM
pIC50 [1]: 7.72
Rf (JLA/JLC) [2]: 1.4
pIC50 [2]: 7.58
Rf (resistance factor) [6]: 1.4
pIC50 [6]: 7.32
pIC50 [7]: 7.46
Rf (JLD/JLC) [3]: 1.2
pIC50 [3]: 7.64

Compound: CN(C)CCNC(=O)c1cccc2nc3ccc4c(OCC#N)cccc4c3nc12 [Compound 11, 4-Cyanomethoxy-benzo[a]phenazine-11-carboxylic acid (2-dimethylamino-ethyl)-amide]
pIC50 ([4]; Homo sapiens, COR-L23): 8.21
pIC50 [8]: 7.75
Rf (resistance factor) [5]: 2.9
pIC50 ([6]; Homo sapiens): 7.62
Rf (resistance factor) [6]: 0.9
pIC50 ([7]; Homo sapiens): 7.55

Effective concentration range, Topoisomerase I (topoisomerase I): 0.03 to 1.0 µM
Effective concentration range, Topoisomerase II (topoisomerase II): 0.03 to 1.0 µM
Compound: COc1cccc2c1ccc1nc3cccc(C(=O)NC(C)CN(C)C)c3nc12 (centres unmarked) [Compound 35, 4-Methoxy-benzo[a]phenazine-11-carboxylic acid (2-dimethylamino-1-methyl-ethyl)-amide]
pIC50 ([1]; Homo sapiens, Jurkat): 7.55
pIC50 ([2]; Homo sapiens, Jurkat): 7.72
Rf (JLA/JLC) [2]: 0.7
pIC50 ([3]; Homo sapiens, Jurkat): 7.60
Rf (JLD/JLC) [3]: 0.9

Compound: CN(C)CCNC(=O)c1c(O)ccc2nc3ccc4c(O)cccc4c3nc12 [Compound 68, 4,10-Dihydroxy-benzo[a]phenazine-11-carboxylic acid (2-dimethylamino-ethyl)-amide]
pIC50 ([4]; Homo sapiens, COR-L23): 7.88
pIC50 [8]: 7.35
Rf (resistance factor) [5]: 3.4
pIC50 ([6]; Homo sapiens): 7.60
Rf (resistance factor) [6]: 1.3
pIC50 ([7]; Homo sapiens): 7.72

Compound: COc1cccc2c1ccc1nc3cccc(C(=O)NC(CO)CN(C)C)c3nc12 (centres unmarked) [Compound 75, 4-Methoxy-benzo[a]phenazine-11-carboxylic acid (2-dimethylamino-1-hydroxymethyl-ethyl)-amide]
pIC50 ([4]; Homo sapiens, COR-L23): 7.89
pIC50 [8]: 7.76
Rf (resistance factor) [5]: 1.3
pIC50 ([6]; Homo sapiens): 7.55
Rf (resistance factor) [6]: 1.2
pIC50 ([7]; Homo sapiens): 7.64

Compound: COc1cccc2c1ccc1nc3cccc(C(=O)N[C@H](CO)CN(C)C)c3nc12 [Compound 81, 4-Methoxy-benzo[a]phenazine-11-carboxylic acid (2-dimethylamino-1-(S)-hydroxymethyl-ethyl)-amide]
pIC50 ([4]; Homo sapiens, COR-L23): 8.40
pIC50 [8]: 7.91
Rf (resistance factor) [5]: 3.1
pIC50 ([1]; Homo sapiens, Jurkat): 8.06
pIC50 ([2]; Homo sapiens, Jurkat): 8.04
Rf (JLA/JLC) [2]: 1.1
pIC50 ([6]; Homo sapiens): 7.60
Rf (resistance factor) [6]: 1.2
pIC50 ([7]; Homo sapiens): 7.70
pIC50 ([3]; Homo sapiens, Jurkat): 8.03
Rf (JLD/JLC) [3]: 1.1

Effective concentration range, Topoisomerase I (topoisomerase I): 0.03 to 1.0 µM
Effective concentration range, Topoisomerase II (topoisomerase II): 0.03 to 1.0 µM
Compound: COc1cccc2c1ccc1nc3cccc(C(=O)NC(CN(C)C)C(C)O)c3nc12 (centres unmarked) [Compound 84, 4-Methoxy-benzo[a]phenazine-11-carboxylic acid (1-dimethylaminomethyl-2-hydroxy-propyl)-amide]
pIC50 ([1]; Homo sapiens, Jurkat): 8.36
pIC50 ([2]; Homo sapiens, Jurkat): 8.01
Rf (JLA/JLC) [2]: 2.2
pIC50 ([6]; Homo sapiens): 7.72
Rf (resistance factor) [6]: 1
pIC50 ([7]; Homo sapiens): 7.72
pIC50 ([3]; Homo sapiens, Jurkat): 8.14
Rf (JLD/JLC) [3]: 1.6

Compound: COc1cccc2c1ccc1nc3cccc(C(=O)NC(C)(CCO)N(C)C)c3nc12 (centres unmarked) [Compound 87, 4-Methoxy-benzo[a]phenazine-11-carboxylic acid [1-dimethylamino-1-(2-hydroxyethyl)]-ethylamide]
pIC50 [1]: 7.80
Rf (JLA/JLC) [2]: 1.0
pIC50 [2]: 7.80
Rf (JLD/JLC) [3]: 1.0
pIC50 [3]: 7.77

Compound: COc1cc(C(=O)NCCN(C)C)c2nc3c(ccc4c(OC)cccc43)nc2c1 [Compound 94, 4,9-Dimethoxy-benzo[a]phenazine-11-carboxylic acid (2-dimethylamino-ethyl)-amide]
pIC50 ([4]; Homo sapiens, COR-L23): 8.24
pIC50 [8]: 8.42
Rf (resistance factor) [5]: 0.7
pIC50 ([1]; Homo sapiens, Jurkat): 8.04
pIC50 ([2]; Homo sapiens, Jurkat): 7.80
Rf (JLA/JLC) [2]: 1.8
pIC50 ([6]; Homo sapiens): 7.60
Rf (resistance factor) [6]: 1.3
pIC50 ([7]; Homo sapiens): 7.72
pIC50 ([3]; Homo sapiens, Jurkat): 7.85
Rf (JLD/JLC) [3]: 1.6

Compound: COc1cccc2c1ccc1nc3cccc(C(=O)N[C@@H](CN(C)C)C(C)C)c3nc12 [Compound 98, (R)-4-Methoxy-benzo[a]phenazine-11-carboxylic acid(1-dimethylaminomethyl-2-methyl-propyl)-amide]
pIC50 [4]: 8.02
Rf (resistance factor) [5]: 0.9
pIC50 [5]: 8.06
pIC50 [1]: 8.07
Rf (JLA/JLC) [2]: 2.1
pIC50 [2]: 7.74
Rf (resistance factor) [6]: 1
pIC50 [6]: 7.70
pIC50 [7]: 7.68
Rf (JLD/JLC) [3]: 1.6
pIC50 [3]: 7.85

Compound: COc1cccc2c1C(=O)c1c(O)c3c(c(O)c1C2=O)C[C@@](O)(C(=O)CO)C[C@@H]3O[C@H]1C[C@H](N)[C@H](O)[C@H](C)O1 [Doxorubicin, reference compound]
Rf (resistance factor) [5]: 16.1
pIC50 ([1]; Homo sapiens, Jurkat): 8.15
Rf (JLA/JLC) [2]: 3.7
pIC50 ([6]; Homo sapiens): 5.43
Rf (resistance factor) [6]: 135

Compound: CC[C@@]1(O)C(=O)OCc2c1cc1n(c2=O)Cc2cc3c(CN(C)C)c(O)ccc3nc2-1 [Topotecan, reference compound]
Rf (resistance factor) [5]: 1.5
Rf (resistance factor) [6]: 3.9
